For data set [1], the target named is T1, human MCH-R1 (Homo sapiens, UniProt Q99705).
T1 construct: expressed in transfected cells
In words: MCH-induced cytosolic Ca2+ ion mobilization, antagonist effect. Format: cell-based. The note with it: antagonism of MCH-induced cytosolic Ca2+ mobilization; read-out: Ki (functionality, antagonism at MCH-R1). As for the experimental part:
The functional assay was run onto cells expressing the hMCH-R1 receptor, as described in Wang et al.. In brief, the cells are suspended in DMEM buffer (Invitrogen), then distributed in microplates at a density of 4.104 cells/well. The fluorescent probe (Fluo4 Direct, Invitrogen) mixed with probenecid in Hanks’ Balanced Salt solution (HBSS) (Invitrogen) complemented with 20 mM HEPES (Invitrogen) (pH 7.4) is then added into each well and equilibrated with the cells for 60 min at 37 °C, then 15 min at 22 °C. Then, the assay plates are positioned in a microplate reader (CellLux, PerkinElmer) which is used for the addition of the test compound, reference agonist or HBSS buffer (basal control), and the measurements of changes in fluorescence intensity, which varies proportionally to the free cytosolic Ca^2+ ion concentration. For stimulated control measurements, MCH at 300 nM is added in separate assay wells. The results are expressed as a percentage of the control response to 300 nM MCH. The standard reference agonist is MCH, which is tested in each experiment at several concentrations to generate a concentration-response curve from which its EC50 value is calculated. For the antagonist effect, the results are expressed as a percentage inhibition of the control response to 30 nM MCH, which was added to all tested wells and controls 5 min after the candidate products.

The next data set in a line: human plasma. As to conditions: 37 °C, up to 300 min.
Data set [2] is classed as in vitro ADME. The note with it: plasma. As for the experimental part:
Plasmas from 3 species (including commercially available human healthy donors) were adjusted to pH 7.4 if necessary. Incubations were performed at a concentration of 1 µM of the compound at 37 °C (in the presence of a final concentration of DMSO of 2.5% v/v. The incubations were stopped at 0, 15, 30, 60 and 120 min by methanol. Each time point was run in sextuplets. The sampling plates were then centrifuged (2500 rpm, 45 min, 4 °C) and the supernatants pooled. Samples were analyzed for parent compound by LC-MS/MS. The percentage of parent compound remaining at each time point relative to the 0 min sample is then calculated from LC-MS/MS peak area ratios. Then, the stability in plasma was evaluated by incubating human, rat or mouse plasma with the compound(s) as follows: the product (0.1 µM in TRIS buffer pH 7.4 0.1% BSA) was incubated with the plasma at 37 °C. The disappearance of the product was measured at 15, 45, 120, 240 and 300 min by mass spectrometry. Incubations were carried out in a robot Star (Hamilton France, Villebon-sur-Yvette, France). At each sampling time, 50 µL of the reaction medium was removed and diluted with 100 µL of acetonitrile. After centrifugation (20 min at + 4 °C, 4000 rpm), 75 µL of the supernatants was transferred into a 384 well injection plate. Ten microliters were injected onto UPLC coupled with a XEVO TQS mass spectrometer system (Waters, Milford, MA, USA). The unchanged product is quantified using a reference sample (0.1 µM) prepared during the incubation process. A second reference sample at 0.01 µM is prepared in the same conditions to verify the linearity of the detection method. The peak height (or area) is measured to calculate the half-life of the compound.

Data set [3] addresses T1, human MCH-R1. Briefly: Binding displacement of [125I]-[Phe13,Tyr19]-MCH at membranes expressing human MCH-R1. The note with it: Table 1, S-S bridge pseudopeptides; 2 × 2 independent duplicates; read-out: Km. As for the experimental part: Stable cell lines were obligatory for all receptor programs. We cloned the human receptor and established the cell line as previously described. In brief, HEK293 (HEK) cells were grown in Dulbecco’s Modified Eagle medium (DMEM) supplemented with 10% fetal calf serum, 2 mM glutamine, 100 IU/mL penicillin and […] streptomycin. They were seeded at 5 × 10^6 cells in T75 cm^2 culture flasks. One day later, they were transfected with […] of the pcDNA3.1 (Invitrogen, Groningen, The Netherlands) containing the human MCH-R1 using lipofectamine (Life Technologies, Cergy Pontoise, France), as previously described. One day later, cells were trypsinized, resuspended in a complete DMEM medium containing […] of geneticin and seeded at different dilutions in 96-well plates which were kept for 2 to 3 weeks in a humidified CO2 incubator. At the end of the selection period, isolated clones were picked up, amplified, and further characterized by cyclic AMP experiments. For each cell line, one positive clone was subcloned before being used for all of the cyclic AMP, [^35S]-GTPγS and receptor binding experiments necessary to characterize them. The stable HEK293 cell line expressing the human MCH-R1 was HEK-hMCH-R1.
Membrane preparations were classically made as previously described. In brief, the HEK-hMCH-R cell line was grown to confluency, harvested in PBS buffer containing 2 mM EDTA and centrifuged at 10,000× g for 5 min (4°C). The resulting pellet was suspended in 20 mM Hepes buffer (pH 7.5), containing 5 mM EGTA and homogenized using a Kinematica polytron. The homogenate was then centrifuged (95,000× g, 30 min, 4 °C) and the resulting pellet was suspended in 50 mM HEPES buffer (pH 7.5), containing 10 mM MgCl2 and 2 mM EGTA. Aliquots of membrane preparations were stored at −80 °C until use. Binding has been described in numerous publications and the test was based on Mac Donald et al.’s description. […] Nonspecific binding is determined in the presence of 0.1 μM MCH. […] The filters are dried and then counted for radioactivity in a scintillation counter (Topcount, Packard) using a scintillation cocktail (Microscint 0, Packard). The results are expressed as percentage inhibition of the control radioligand specific binding. The standard reference compound is MCH, which was tested in each experiment at 8 concentrations to obtain a competition curve from which its IC50 is calculated. The high level of assay robustness and reproducibility of each control monitored over several decades (internal data base, Eurofins) and included in every assay ensure results’ reliability even when performed only twice. […]

Where two headings read alike, the source gives them in different places. Where a SMILES comes first, the peptide text is derived from it. Bridges are numbered along the chain shown (N, C = ends). Triazole bridges read from a SMILES are 1,4-linked. Where no end group is shown, it is not given here. [ ]: non-standard residue; d: D form. The star is where a group is joined. Benzoyl(4-guanidino) = N=C(N)Nc1ccc(C(=O)*)cc1; Gua = N-terminal guanidino group, N=C(N)*; Pro(4S-NH2) = N[C@@H]1CN[C@H](C(=O)O)C1; Orn(N3) = [N-]=[N+]=NCCC[C@H](N)C(=O)O; Aha = [N-]=[N+]=NCC[C@H](N)C(=O)O; Cav = NC(N)=NOCC[C@H](N)C(=O)O; Hpra = C#CCC[C@H](N)C(=O)O; hCys = N[C@@H](CCS)C(=O)O; Orn = NCCC[C@H](N)C(=O)O; Pra = C#CC[C@H](N)C(=O)O

T1 sequence (Q99705 whole entry): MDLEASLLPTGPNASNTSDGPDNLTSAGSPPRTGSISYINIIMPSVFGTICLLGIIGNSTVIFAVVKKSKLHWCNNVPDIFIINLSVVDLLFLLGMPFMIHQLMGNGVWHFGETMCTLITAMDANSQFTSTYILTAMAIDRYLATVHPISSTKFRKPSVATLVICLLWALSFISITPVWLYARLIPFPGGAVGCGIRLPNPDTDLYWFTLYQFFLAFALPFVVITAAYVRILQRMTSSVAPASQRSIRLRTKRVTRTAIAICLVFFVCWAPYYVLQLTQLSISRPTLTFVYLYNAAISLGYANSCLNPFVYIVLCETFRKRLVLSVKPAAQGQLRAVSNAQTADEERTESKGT

For `CSCC[C@@H]1NC(=O)[C@@H](NC(=O)c2ccc(NC(=N)N)cc2)CCC(=O)NCCC[C@@H](C(=O)N[C@@H](Cc2c[nH]c3ccccc23)C(=O)O)NC(=O)[C@@H]2CCCN2C(=O)[C@H](CCON=C(N)N)NC(=O)[C@H](C(C)C)NC(=O)[C@H](CCCNC(=N)N)NC(=O)[C@H](CC(C)C)NC1=O` [GPS13683] ({Benzoyl(4-guanidino)}-EMLRV[Cav]P[Orn]W-OH; lactam 1-8), on human MCH-R1 [1], the Ki was found to be 0.15 nM.

As to `CSCC[C@@H]1NC(=O)[C@@H](NC(=O)c2ccc(NC(=N)N)cc2)CCn2cc(nn2)CC[C@@H](C(=O)N[C@@H](Cc2c[nH]c3ccccc23)C(=O)O)NC(=O)[C@@H]2CCCN2C(=O)[C@H](CCCNC(=N)N)NC(=O)[C@H](C(C)C)NC(=O)[C@H](CCCNC(=N)N)NC(=O)[C@H](CC(C)C)NC1=O` [GPS14517] ({Benzoyl(4-guanidino)}-[Aha]MLRVRP[Hpra]W-OH; triazole 1-8), the Ki on human MCH-R1 [1] was determined as 0.022 nM.

Consider “Gua-Glu-Met-Leu-Arg-Val-Arg-4-NH2-Pro-Orn-Trp”, for which the not cleaved entry in the data set “human plasma” is listed as “not metabolized at all, 100% of the initial dose found at 300 (5 h)”.

On to `CSCC[C@@H]1NC(=O)[C@@H](NC(=O)c2ccc(NC(=N)N)cc2)CCC(=O)NCCC[C@@H](C(=O)N[C@@H](Cc2c[nH]c3ccccc23)C(=O)O)NC(=O)[C@@H]2CCCN2C(=O)[C@H](CCCNC(=N)N)NC(=O)[C@H](Cc2ccc(O)cc2)NC(=O)[C@H](C(C)C)NC(=O)[C@H](CCCNC(=N)N)NC(=O)[C@H](CC(C)C)NC1=O` [GPS13695] ({Benzoyl(4-guanidino)}-EMLRVYRP[Orn]W-OH; lactam 1-9), for which the Ki on human MCH-R1 [1] came out at 0.13 nM.

Regarding `CSCC[C@@H]1NC(=O)[C@@H](NC(=O)c2ccc(NC(=N)N)cc2)Cc2cn(nn2)CCC[C@@H](C(=O)N[C@@H](Cc2c[nH]c3ccccc23)C(=O)O)NC(=O)[C@@H]2CCCN2C(=O)[C@H](CCCNC(=N)N)NC(=O)[C@H](C(C)C)NC(=O)[C@H](CCCNC(=N)N)NC(=O)[C@H](CC(C)C)NC1=O` [GPS14518] ({Benzoyl(4-guanidino)}-[Pra]MLRVRP[Orn(N3)]W-OH; triazole 1-8), the Ki at human MCH-R1 [1] was 0.027 nM.

On to “Gua-Glu-Ethionine-Leu-Arg-Val-Arg-Pro-Orn-Trp”, for which, in “human plasma”, the not cleaved entry is on record as “not metabolized at all, 100% of the initial dose found at 300 (5 h)”.

Take `CCSCC[C@@H]1NC(=O)[C@@H](NC(=O)c2ccc(NC(=N)N)cc2)CCC(=O)NCCC[C@@H](C(=O)N[C@@H](Cc2c[nH]c3ccccc23)C(=O)O)NC(=O)[C@@H]2CCCN2C(=O)[C@H](CCCNC(=N)N)NC(=O)[C@H](C(C)C)NC(=O)[C@H](CCCNC(=N)N)NC(=O)[C@H](CC(C)C)NC1=O` [GPS13663] ({Benzoyl(4-guanidino)}-E[hCys](Et)LRVRP[Orn]W-OH; lactam 1-8): the results for the half-life in data set [2] (human), in data set [2] (mouse) and in data set [2] (rat) were ≥ 5 h, 0.317 ± 0.0167 h and 1.57 ± 0.05 h, respectively.

Regarding `CSCC[C@@H]1NC(=O)[C@@H](NC(=O)c2ccc(NC(=N)N)cc2)CCC(=O)NCCC[C@@H](C(=O)N[C@@H](Cc2c[nH]c3ccccc23)C(=O)O)NC(=O)[C@@H]2C[C@H](N)CN2C(=O)[C@H](CCCNC(=N)N)NC(=O)[C@H](C(C)C)NC(=O)[C@H](CCCNC(=N)N)NC(=O)[C@H](CC(C)C)NC1=O` [GPS13684] ({Benzoyl(4-guanidino)}-EMLRVR[Pro(4S-NH2)][Orn]W-OH; lactam 1-8), the half-life was ≥ 5 h in data set [2] (human), 0.433 ± 0.0167 h in data set [2] (mouse) and 2.25 ± 0.15 h in data set [2] (rat).

Turning to `CSCC[C@@H]1NC(=O)[C@@H](NC(=O)c2ccc(NC(=N)N)cc2)CCCn2cc(nn2)C[C@@H](C(=O)N[C@@H](Cc2c[nH]c3ccccc23)C(=O)O)NC(=O)[C@@H]2CCCN2C(=O)[C@H](CCCNC(=N)N)NC(=O)[C@H](C(C)C)NC(=O)[C@H](CCCNC(=N)N)NC(=O)[C@H](CC(C)C)NC1=O` [GPS14519] ({Benzoyl(4-guanidino)}-[Orn(N3)]MLRVRP[Pra]W-OH; triazole 1-8), the Ki on human MCH-R1 [1] is 0.43 nM.

For the compound `CSCC[C@H](NC(=O)[C@H](CCC(=O)O)NC(=O)c1ccc(NC(=N)N)cc1)C(=O)N[C@@H](CC(C)C)C(=O)N[C@@H](CCCNC(=N)N)C(=O)N[C@H](C(=O)N[C@@H](CCCNC(=N)N)C(=O)N1CCC[C@H]1C(=O)N[C@@H](CCCN)C(=O)N[C@@H](Cc1c[nH]c2ccccc12)C(=O)O)C(C)C` [GPS13669] ({Benzoyl(4-guanidino)}-EMLRVRP[Orn]W-OH), at human MCH-R1 [1], the Ki was found to be 300 nM.

Turning to `CCSCC[C@@H]1NC(=O)[C@@H](NC(=O)c2ccc(NC(=N)N)cc2)Cc2cn(nn2)CC[C@@H](C(=O)N[C@@H](Cc2c[nH]c3ccccc23)C(=O)O)NC(=O)[C@@H]2CCCN2C(=O)[C@H](CCCNC(=N)N)NC(=O)[C@H](C(C)C)NC(=O)[C@H](CCCNC(=N)N)NC(=O)[C@H](CC(C)C)NC1=O` [GPS13671] ({Benzoyl(4-guanidino)}-[Pra][hCys](Et)LRVRP[Aha]W-OH; triazole 1-8), on human MCH-R1 [1], the Ki came to 8 nM.

On to “GPS11373: S-S bridge: Gua-Cys-Met-Leu-Arg-Val-Arg-Pro-Cys-Trp (Gua-CMLRVRPCW; disulfide 1-8 (inferred))”, for which the binding affinity constant with human MCH-R1 [3] amounted to 100 nM.

On to `CSCC[C@@H]1NC(=O)[C@@H](NC(=O)c2ccc(NC(=N)N)cc2)CCC(=O)NCCC[C@@H](C(=O)N[C@@H](Cc2c[nH]c3ccccc23)C(=O)O)NC(=O)[C@@H]2CCCN2C(=O)[C@H](CCCNC(=N)N)NC(=O)[C@H](C(C)C)NC(=O)[C@H](CCCNC(=N)N)NC(=O)[C@H](CC(C)C)NC1=O` [GPS12744] ({Benzoyl(4-guanidino)}-EMLRVRP[Orn]W-OH; lactam 1-8), for which the half-life in data set [2] (human) is ≥ 5 h; in data set [2] (mouse) it was 0.433 ± 0.05 h; in data set [2] (rat), 2.38 ± 0.2 h.

For Gua-Glu-Met-Leu-Arg-Val-Arg-Pro-Orn-Trp, in “human plasma”, the not cleaved result is given as “not metabolized at all, 100% of the initial dose found at 300 (5 h)”.

For the origin of these results see publication PMC7957705 (Molecules, 2021).
